Measured values as given in patent US20230107941A1, “HEPATITIS B CAPSID ASSEMBLY MODULATORS” (Venatorx Pharmaceuticals, Inc., priority 2019, published 2023).

Legend:
[1] = In vitro cytotoxicity assay (MTT cell viability) in HepG2 cells; assay type: cell-based, human; settings: human
Summary of the method: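 CC50 was derived by 4-parameter fit of viability relative to vehicle controls, measured as MTT formazan absorbance at 492 nm after 3–4 h of reagent and DMSO solubilization. Before that, HepG2 cells seeded overnight at 20,000/well were incubated 7 days at 37°C with compound from 30 μM down to 1.0 nM in half-log steps.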

HBV = assay: In vitro antiviral assay: anti-HBV replication in HepAD38 cells (extracellular HBV DNA by QPCR); assay type: cell-based, hepatitis B virus (genotype D, serotype ayw); settings: Hepatitis B virus, HePAD38, 168 h, 7 days incubation, extracellular HBV DNA by QPCR, read-out: Anti-HBV EC50
Summary of the method: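 HepG2-derived HepAD38 cells (HBV genotype D, ayw, tet-repressible CMV) induced by tetracycline withdrawal, treated 7 days at 37 °C with compound (1 μM to 10 pM, 10-fold steps). Supernatant HBV DNA quantified by QPCR against standard curve, percent of DMSO control; EC50 by 4-parameter fit; entecavir positive control.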

SMILES | CC50 at 7 days [1] [µM] | EC50 (HBV) [µM]
Cc1cc(NC(=O)c2c(C)c(C(=O)C(=O)N[C@H]3CC[C@@H](S(C)(=O)=O)CC3)n(C)c2C)ccc1F [Example 1, N-(4-fluoro-3-methylphenyl)-1,2,4-trimethyl-5-(2-(((1s,4s)-4-(methylsulfonyl)cyclohexyl)amino)-2-oxoacetyl)-1H-pyrrole-3-carboxamide] | > 30 | < 0.05
Cc1cc(NC(=O)c2c(C)c(C(=O)C(=O)N[C@]3(C)CC[C@H](O)CC3)n(C)c2-c2cccnc2)ccc1F [Example 152, N-(4-fluoro-3-methylphenyl)-5-(2-(((1s,4s)-4-hydroxy-1-methylcyclohexyl)amino)-2-oxoacetyl)-1,4-dimethyl-2-(pyridin-3-yl)-1H-pyrrole-3-carboxamide] | > 30 | > 1
Cc1c(C(=O)Nc2cc(Cl)nc(Cl)c2)c(C)n(C)c1C(=O)C(=O)N[C@H]1CC[C@@H](O)CC1 [Example 2, N-(2,6-dichloropyridin-4-yl)-5-(2-(((1s,4s)-4-hydroxycyclohexyl)amino)-2-oxoacetyl)-1,2,4-trimethyl-1H-pyrrole-3-carboxamide] | > 30 | < 0.05
Cc1cc(NC(=O)c2c(C)c(C(=O)C(=O)N[C@H]3CC[C@@H](S(C)(=O)=O)CC3)n(C)c2-c2ccncc2)ccc1F [Example 160, N-(4-fluoro-3-methylphenyl)-1,4-dimethyl-5-(2-(((1s,4s)-4-(methylsulfonyl)cyclohexyl)amino)-2-oxoacetyl)-2-(pyridin-4-yl)-1H-pyrrole-3-carboxamide] | > 30 | > 1
CC(=O)N1CC[C@H](NC(=O)C(=O)c2c(C)c(C(=O)Nc3ccc(F)c(C)c3)c(C)n2C)C[C@H]1C [Example 78, 5-(2-(((2R,4S)-1-acetyl-2-methylpiperidin-4-yl)amino)-2-oxoacetyl)-N-(4-fluoro-3-methylphenyl)-1,2,4-trimethyl-1H-pyrrole-3-carboxamide] | > 30 | < 0.05
Cc1cc(NC(=O)c2c(C)c(C(=O)C(=O)N[C@]3(C)C[C@H](O)C3)n(C)c2-c2cccnc2)ccc1F [Example 150, N-(4-fluoro-3-methylphenyl)-5-(2-(((1s,3s)-3-hydroxy-1-methylcyclobutyl)amino)-2-oxoacetyl)-1,4-dimethyl-2-(pyridin-3-yl)-1H-pyrrole-3-carboxamide] | > 30 | > 1
Cc1cc(NC(=O)c2c(C)c(C(=O)C(=O)Nc3ccncc3N3CCOCC3)n(C)c2C)ccc1F [Example 54, N-(4-fluoro-3-methylphenyl)-1,2,4-trimethyl-5-(2-((3-morpholinopyridin-4-yl)amino)-2-oxoacetyl)-1H-pyrrole-3-carboxamide] | > 30 | 0.5 to 1
Cc1cc(NC(=O)c2c(C)c(C(=O)C(=O)N[C@]3(C)C[C@H](O)C3)n(C)c2C(C)C)ccc1F [Example 109, N-(4-fluoro-3-methylphenyl)-5-(2-(((1s,3s)-3-hydroxy-1-methylcyclobutyl)amino)-2-oxoacetyl)-2-isopropyl-1,4-dimethyl-1H-pyrrole-3-carboxamide] | > 30 | 0.05 to 0.499
Cc1cc(NC(=O)c2c(C)c(C(=O)C(=O)N[C@]3(C4CC4)CC[C@@H](O)CC3)n(C)c2C)ccc1F [Example 3, 5-(2-(((1r,4r)-1-cyclopropyl-4-hydroxycyclohexyl)amino)-2-oxoacetyl)-N-(4-fluoro-3-methylphenyl)-1,2,4-trimethyl-1H-pyrrole-3-carboxamide] | > 30 | < 0.05
CC(=O)N1CC[C@@H](NC(=O)C(=O)c2c(C)c(C(=O)Nc3ccc(F)c(C)c3)c(C)n2C)C(F)(F)C1 [Example 148, (R)-5-(2-((1-acetyl-3,3-difluoropiperidin-4-yl)amino)-2-oxoacetyl)-N-(4-fluoro-3-methylphenyl)-1,2,4-trimethyl-1H-pyrrole-3-carboxamide] | > 30 | < 0.05
Cc1c(C(=O)Nc2ccc(F)c(C#N)c2)c(C)n(C)c1C(=O)C(=O)NC1(C)CC(O)C1 (centres unmarked) [Example 83, N-(3-cyano-4-fluorophenyl)-5-(2-((3-hydroxy-1-methylcyclobutyl)amino)-2-oxoacetyl)-1,2,4-trimethyl-1H-pyrrole-3-carboxamide] | > 30 | < 0.05
Cc1c(C(=O)Nc2ccc(F)c(Br)c2)c(C)n(C)c1C(=O)C(=O)N[C@]1(C)CC[C@@H](O)CC1 [Example 18, N-(3-bromo-4-fluorophenyl)-5-(2-(((1r,4r)-4-hydroxy-1-methylcyclohexyl)amino)-2-oxoacetyl)-1,2,4-trimethyl-1H-pyrrole-3-carboxamide] | > 30 | < 0.05
Cc1ccc(F)c(NC(=O)c2c(C)c(C(=O)C(=O)NC(C)(C)C)n(C)c2C)c1 [Example 68, 5-(2-(tert-butylamino)-2-oxoacetyl)-N-(2-fluoro-5-methylphenyl)-1,2,4-trimethyl-1H-pyrrole-3-carboxamide] | > 30 | < 0.05
Cc1cc(NC(=O)c2c(C)c(C(=O)C(=O)NC3(C)CCN(CC(=O)O)CC3)n(C)c2C)ccc1F [Example 27, 2-(4-(2-(4-((4-fluoro-3-methylphenyl)carbamoyl)-1,3,5-trimethyl-1H-pyrrol-2-yl)-2-oxoacetamido)-4-methylpiperidin-1-yl)acetic acid] | > 30 | 0.5 to 1
Cc1cc(NC(=O)c2c(C)c(C(=O)C(=O)NC3(CO)CCN(C(=O)c4cnn(C)c4)CC3)n(C)c2C)ccc1F [Example 74, N-(4-fluoro-3-methylphenyl)-5-(2-((4-(hydroxymethyl)-1-(1-methyl-1H-pyrazole-4-carbonyl)piperidin-4-yl)amino)-2-oxoacetyl)-1,2,4-trimethyl-1H-pyrrole-3-carboxamide] | > 30 | < 0.05
Cc1c(C(=O)Nc2ccc(F)c(S(C)(=O)=O)c2)c(C)n(C)c1C(=O)C(=O)NC(C)(C)C [Example 69, 5-(2-(tert-butylamino)-2-oxoacetyl)-N-(4-fluoro-3-(methylsulfonyl)phenyl)-1,2,4-trimethyl-1H-pyrrole-3-carboxamide] | > 30 | > 1
CC(=O)N1CC[C@@H](NC(=O)C(=O)c2c(C)c(C(=O)Nc3ccc(F)c(C)c3)c(C)n2C)C(C)(C)C1 [Example 149, (R)-5-(2-((1-acetyl-3,3-dimethylpiperidin-4-yl)amino)-2-oxoacetyl)-N-(4-fluoro-3-methylphenyl)-1,2,4-trimethyl-1H-pyrrole-3-carboxamide] | > 30 | < 0.05
Cc1cc(NC(=O)c2c(C)c(C(=O)C(=O)N[C@H]3CC[C@@H](S(C)(=O)=O)CC3)n(C)c2-c2cccnc2)ccc1F [Example 151, N-(4-fluoro-3-methylphenyl)-1,4-dimethyl-5-(2-(((1s,4s)-4-(methylsulfonyl)cyclohexyl)amino)-2-oxoacetyl)-2-(pyridin-3-yl)-1H-pyrrole-3-carboxamide] | > 30 | > 1
CCc1c(C(=O)Nc2ccc(F)c(C)c2)c(C)n(C)c1C(=O)C(=O)NCC(C)(C)O [Example 88, 4-ethyl-N-(4-fluoro-3-methylphenyl)-5-(2-((2-hydroxy-2-methylpropyl)amino)-2-oxoacetyl)-1,2-dimethyl-1H-pyrrole-3-carboxamide] | > 30 | 0.5 to 1
Cc1cc(NC(=O)c2c(C3CC3)c(C(=O)C(=O)NCC(C)(C)O)n(C)c2C)ccc1F [Example 99, 4-cyclopropyl-N-(4-fluoro-3-methylphenyl)-5-(2-((2-hydroxy-2-methylpropyl)amino)-2-oxoacetyl)-1,2-dimethyl-1H-pyrrole-3-carboxamide] | > 30 | > 1
Cc1cc(NC(=O)c2c(C)c(C(=O)C(=O)NC34CC(C3)C4)n(C)c2C)ccc1F [Example 80, 5-(2-(bicyclo[1.1.1]pentan-1-ylamino)-2-oxoacetyl)-N-(4-fluoro-3-methylphenyl)-1,2,4-trimethyl-1H-pyrrole-3-carboxamide] | 5 to 30 | < 0.05
CCOC(=O)CO[C@H]1CC[C@@H](NC(=O)C(=O)c2c(C)c(C(=O)Nc3ccc(F)c(C)c3)c(C)n2C)CC1 [Example 26, ethyl 2-(((1s,4s)-4-(2-(4-((4-fluoro-3-methylphenyl)carbamoyl)-1,3,5-trimethyl-1H-pyrrol-2-yl)-2-oxoacetamido)cyclohexyl)oxy) acetate] | > 30 | > 1
Cc1c(C(=O)Nc2cc(Cl)cc(Cl)c2)c(C)n(C)c1C(=O)C(=O)N[C@H](C)C(F)(F)F [Example 79, (R)-N-(3,5-dichlorophenyl)-1,2,4-trimethyl-5-(2-oxo-2-((1,1,1-trifluoropropan-2-yl)amino)acetyl)-1H-pyrrole-3-carboxamide] | 5 to 30 | < 0.05
CCC1(NC(=O)C(=O)c2c(C)c(C(=O)Nc3ccc(F)c(C)c3)c(C)n2C)CCN(c2cnccn2)CC1 [Example 50, 5-(2-((4-ethyl-1-(pyrazin-2-yl)piperidin-4-yl)amino)-2-oxoacetyl)-N-(4-fluoro-3-methylphenyl)-1,2,4-trimethyl-1H-pyrrole-3-carboxamide] | > 30 | < 0.05
Cc1cc(NC(=O)c2c(C)c(C(=O)C(=O)N[C@H]3CC[C@@H](O)CC3)n(C)c2-c2ccncc2)ccc1F [Example 163, N-(4-fluoro-3-methylphenyl)-5-(2-(((1s,4s)-4-hydroxycyclohexyl)amino)-2-oxoacetyl)-1,4-dimethyl-2-(pyridin-4-yl)-1H-pyrrole-3-carboxamide] | > 30 | > 1
